The values below come from PubChem BioAssay (NCI).

Test systems include A549 NSCLC; SN12C renal; CAKI-1 renal; NCI-H460 lung; MCF7 breast; MALME-3M melanoma; TK-10 renal; MOLT-4 leukemia; OVCAR-5 ovarian; NCI-H23 lung.
Common to all, as to assay: DTP human tumour cell line panel, 48 h

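96-well plates; 48 h exposure; 5 concentrations. Endpoints by linear interpolation between flanking doses. Not reached: highest tested concentration assigned. GI50 marks 50% less growth. Definition used: TGI = concentration required for complete inhibition of growth.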

The term TGI denotes the concentration at which net growth stops. Lower therefore signals greater sensitivity of the cells. In the case of `CC1(C)CC(O)C(C)(C)[C@@H](O)C1` (stereo not given in full), the concentration for total growth inhibition (TGI) in the assay with A549 NSCLC, in the assay with SN12C renal, in the assay on CAKI-1 renal, in the assay on NCI-H460 lung, with MCF7 breast and with MALME-3M melanoma was greater than 100 µM in each case. The TGI in the assay on TK-10 renal, with MOLT-4 leukemia, in the assay with OVCAR-5 ovarian and in the assay with NCI-H23 lung was greater than 100 µM throughout.

One may read the GI50 as the concentration at which growth is held to half of that of the control. Consider `C=C1C(O)C2C(=C(CC)C13CC3)C(=O)C(C)(C)C2OC` (stereo not given), for which the GI50 with A549 NSCLC is 44.9 µM; in the assay on SN12C renal, 74.2 µM; in the assay on CAKI-1 renal it was 76.5 µM; in the assay on NCI-H460 lung, 39.3 µM; in the assay with MCF7 breast, 42.4 µM; with MALME-3M melanoma, greater than 100 µM. In addition, the GI50 was greater than 100 µM in the assay with TK-10 renal, 27.3 µM in the assay with MOLT-4 leukemia, greater than 100 µM with OVCAR-5 ovarian and 55.6 µM in the assay on NCI-H23 lung. Further, the total growth inhibition concentration (TGI) in the assay on A549 NSCLC, in the assay with SN12C renal, in the assay with CAKI-1 renal, in the assay with NCI-H460 lung, in the assay with MCF7 breast and with MALME-3M melanoma was greater than 100 µM in each case. Also, the TGI in the assay with TK-10 renal, in the assay with MOLT-4 leukemia, in the assay on OVCAR-5 ovarian and in the assay with NCI-H23 lung was greater than 100 µM each time.

As for `N#C/C(=C\c1ccsc1)c1nc2ccccc2o1`, the GI50 was greater than 100 µM with A549 NSCLC; greater than 100 µM in the assay with SN12C renal; 22.3 µM in the assay on CAKI-1 renal; greater than 100 µM in the assay on NCI-H460 lung; 17.8 µM in the assay on MCF7 breast; 45.2 µM in the assay on MALME-3M melanoma. Besides, the GI50 was 21.1 µM with TK-10 renal, greater than 100 µM with MOLT-4 leukemia, greater than 100 µM in the assay on OVCAR-5 ovarian and greater than 100 µM in the assay with NCI-H23 lung. Besides, the TGI with A549 NSCLC, in the assay on SN12C renal, in the assay on CAKI-1 renal, in the assay on NCI-H460 lung, with MCF7 breast and in the assay on MALME-3M melanoma was greater than 100 µM throughout. For the same compound, the TGI with TK-10 renal was 70.5 µM; in the assay on MOLT-4 leukemia, greater than 100 µM; in the assay with OVCAR-5 ovarian, greater than 100 µM; with NCI-H23 lung it was greater than 100 µM.

For `COC(=O)C1(Cc2ccc3c(c2)CCC3)Cc2ccccc2C1O` (stereo not given), the TGI in the assay with A549 NSCLC was 49.2 µM; with SN12C renal it was 29.2 µM; with CAKI-1 renal, 52.3 µM; with NCI-H460 lung, 38.1 µM; in the assay on MCF7 breast it was 49.6 µM; in the assay with MALME-3M melanoma, 37.6 µM. Moreover, the concentration for total growth inhibition (TGI) was found to be 53.1 µM with TK-10 renal, 35.5 µM in the assay on MOLT-4 leukemia, 80 µM with OVCAR-5 ovarian and 45 µM with NCI-H23 lung.

For the compound `O=C1/C(=C/c2ccccc2)CN(C(=O)CCN2CCOCC2)C/C1=C\c1ccccc1`, the TGI in the assay with A549 NSCLC stood at 20.2 µM; with SN12C renal it was 4.55 µM; in the assay on CAKI-1 renal, 23 µM; in the assay with NCI-H460 lung it was 5.47 µM; with MCF7 breast, 6.29 µM; with MALME-3M melanoma, 6.32 µM. For the same compound, the TGI with TK-10 renal amounted to 24.3 µM; in the assay on MOLT-4 leukemia, 21.6 µM; in the assay with OVCAR-5 ovarian, 16.2 µM; in the assay with NCI-H23 lung it was 6.13 µM.

On to `COc1cc2c(cc1OC)[C@H](C)N1CCc3cc(OC)c(OC)cc3[C@@H]1C2`, for which the TGI with A549 NSCLC, with SN12C renal, in the assay with CAKI-1 renal, with NCI-H460 lung, in the assay with MCF7 breast and in the assay on MALME-3M melanoma was greater than 100 µM throughout. Also, the concentration for total growth inhibition (TGI) in the assay on TK-10 renal, with MOLT-4 leukemia, with OVCAR-5 ovarian and with NCI-H23 lung was greater than 100 µM each time.

In the case of `COc1ccc(C/C(C)=C(/c2ccc(OCCN3CCCCC3)cc2)c2ccc(OC(=O)NCc3ccccc3)cc2)cc1`, the GI50 in the assay with A549 NSCLC is 0.413 µM; in the assay on SN12C renal, 0.428 µM; in the assay on CAKI-1 renal, 0.405 µM; in the assay with NCI-H460 lung it was 0.412 µM; in the assay with MCF7 breast, 0.0568 µM; with MALME-3M melanoma it was 0.395 µM. The GI50 in the assay on TK-10 renal is 0.405 µM; in the assay with MOLT-4 leukemia, 0.404 µM; in the assay with OVCAR-5 ovarian, 0.415 µM; in the assay with NCI-H23 lung, 0.425 µM. The total growth inhibition concentration (TGI) with A549 NSCLC was 0.821 µM; in the assay on SN12C renal it was 0.8 µM; in the assay on CAKI-1 renal, 0.769 µM; in the assay with NCI-H460 lung it was 0.775 µM; in the assay on MCF7 breast it was 0.512 µM; in the assay on MALME-3M melanoma, 0.776 µM. The TGI in the assay on TK-10 renal came to 0.781 µM; with MOLT-4 leukemia, 1.1 µM; with OVCAR-5 ovarian, 0.78 µM; in the assay on NCI-H23 lung it was 0.838 µM.

In the case of `COc1cccc(-c2c[nH]c3c(N/N=C/c4ccncc4)ncnc23)c1`, the GI50 in the assay with A549 NSCLC is 2.67 µM; with SN12C renal, 1.65 µM; in the assay with CAKI-1 renal it was 1.84 µM; in the assay on NCI-H460 lung it was 1.4 µM; in the assay with MCF7 breast, 1.93 µM; in the assay with MALME-3M melanoma, 8.58 µM. The GI50 in the assay with TK-10 renal is 4.15 µM; in the assay on MOLT-4 leukemia it was 4.42 µM; in the assay with OVCAR-5 ovarian, 4.93 µM; with NCI-H23 lung it was 2.98 µM. The TGI was 10.1 µM with A549 NSCLC; greater than 19.3 µM in the assay on SN12C renal; greater than 25 µM in the assay with CAKI-1 renal; 5.89 µM in the assay with NCI-H460 lung; 5.91 µM in the assay with MCF7 breast; 20.9 µM in the assay with MALME-3M melanoma. Besides, the TGI is 20.6 µM in the assay on TK-10 renal, 19.6 µM with MOLT-4 leukemia, 17.2 µM in the assay with OVCAR-5 ovarian and 11.8 µM in the assay on NCI-H23 lung.

Turning to `COc1ccc2c(c1)NC1=C(C(=O)OC1)C2c1cc(OC)c2c(c1)OCO2` (stereo not given), the GI50 is 0.0229 µM in the assay with A549 NSCLC; 0.0288 µM with SN12C renal; 0.0502 µM in the assay with CAKI-1 renal; 0.0274 µM in the assay on NCI-H460 lung; less than 0.0158 µM with MCF7 breast; greater than 100 µM with MALME-3M melanoma. In addition, the GI50 with TK-10 renal is 60.7 µM; in the assay on MOLT-4 leukemia it was 0.0246 µM; with OVCAR-5 ovarian, 0.0817 µM; in the assay with NCI-H23 lung it was 0.0259 µM. In addition, the TGI in the assay on A549 NSCLC, with SN12C renal, with CAKI-1 renal, in the assay with NCI-H460 lung, in the assay with MCF7 breast and in the assay on MALME-3M melanoma was greater than 100 µM in each case. The TGI in the assay on TK-10 renal, with MOLT-4 leukemia, in the assay on OVCAR-5 ovarian and with NCI-H23 lung was greater than 100 µM in each case.
